Counter-ions that a name gives are not always drawn. Blank lines part the entries; values can stand above or below the compound they belong to.
Target: human histamine 3 receptor (hH3R) (Homo sapiens (Human), UniProt Q9Y5N1)
Experiment: Binding affinity of human histamine 3 receptor (hH3R), [3H] labeled N-α-methylhistamine displacement
Details: hH3R-overexpressed cell membrane, [3H] N-α-methylhistamine
Method: 10 μL of the prepared compound solution was allocated in each well of a 96-well plate, and then 10 μL of 200 μM (R)(−)-α-methylhistamine (RaMH) diluted with analysis buffer and 1% of DMSO were transferred to each well to calculate non-specific binding and total binding degree. 15 μg of human histamine 3 receptor-overexpressed cell membrane (PerkinElmer) was diluted with 180 μL of analysis buffer solution (50 mM tris-HCl pH 7.4, 5 mM MgCl2), and that was transferred to each well. [^3H] labeled Na-methylhistamine (PerkinElmer) was diluted into […], 10 μL of that was added to each well, and then it was kept in a 27° C. incubator for 30 minutes. After the reaction, 200 μL of the mixture was transferred to a glass fiber plate in which 0.5% polyethylene amine was presoaked, and then non-binding [^3H] labeled Na-methylhistamine was removed in vacuum. After 5 times washing with 200 μL of washing buffer solution (50 mM tris-HCl, pH 7.4), the plate was dried in a 37° C. oven for 18 hours. 100 μL of betascint cocktail solution was added to each well, and after 1 hour CPM of [^3H] labeled N-α-methylhistamine was measured by using Wallac beta-counter TriLux. The binding affinity (IC50) of the human histamine 3 receptor for the present invention was analyzed by an Excel program, and the results of analysis are shown in Table 2.

Chain of human histamine 3 receptor (hH3R) (Q9Y5N1 whole entry): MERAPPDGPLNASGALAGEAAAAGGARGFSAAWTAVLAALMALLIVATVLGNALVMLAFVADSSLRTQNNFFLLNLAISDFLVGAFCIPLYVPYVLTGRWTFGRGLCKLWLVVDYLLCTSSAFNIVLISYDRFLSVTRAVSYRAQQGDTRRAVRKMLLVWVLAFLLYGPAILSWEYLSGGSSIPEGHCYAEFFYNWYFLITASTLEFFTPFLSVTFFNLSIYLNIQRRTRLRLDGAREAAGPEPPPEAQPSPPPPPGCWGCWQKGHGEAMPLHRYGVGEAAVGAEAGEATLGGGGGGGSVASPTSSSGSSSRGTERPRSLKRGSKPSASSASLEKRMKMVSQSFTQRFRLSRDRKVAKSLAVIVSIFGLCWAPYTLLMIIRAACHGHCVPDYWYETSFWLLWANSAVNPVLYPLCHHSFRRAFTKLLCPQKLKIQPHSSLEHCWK

- IC50: > 100 µM
Structure (SMILES): Cc1cnc2c(c1)nc(N1CCN(C)CC1)c1nncn12 [Compound 1, 3-Methyl-6-(4-methylpiperazin-1-yl)pyrido[3,2-e][1,2,4]triazolo[4,3-a]pyrazine]

- IC50: > 100 µM
Structure (SMILES): CN1CCN(c2nc3ncccc3n3cnnc23)CC1 [Compound 3, 4-(4-Methylpiperazin-1-yl)pyrido[2,3-e][1,2,4]triazolo[4,3-a]pyrazine]

- IC50: > 100 µM
Structure (SMILES): CN1CCN(c2nc3cc(Cl)cnc3n3cnnc23)CC1 [Compound 5, 3-Chloro-6-(4-methylpiperazin-1-yl)pyrido[3,2-e][1,2,4]triazolo[4,3-a]pyrazine]

- IC50: > 100 µM
Structure (SMILES): CN1CCN(c2nc3cccnc3n3cnnc23)CC1 [Compound 6, 6-(4-Methylpiperazin-1-yl)pyrido[3,2-e][1,2,4]triazolo[4,3-a]pyrazine]

- IC50: > 100 µM
Structure (SMILES): NC1CN(c2nc3ncc(Cl)cc3n3cnnc23)C1 [Compound 8, 1-(8-Chloropyrido[2,3-e][1,2,4]triazolo[4,3-a]pyrazin-4-yl)azetidin-3-amine]

- IC50: > 100 µM
Structure (SMILES): CN(C)[C@@H]1CCN(c2nc3ncc(Cl)cc3n3cnnc23)C1 [Compound 9, (R)-1-(8-chloropyrido[2,3-e][1,2,4]triazolo[4,3-a]pyrazin-4-yl)-N,N-dimethylpyrrolidin-3-amine]

- IC50: > 100 µM
Structure (SMILES): CN[C@@H]1CCN(c2nc3ncc(Cl)cc3n3cnnc23)C1 [Compound 10, (R)-1-(8-chloropyrido[2,3-e][1,2,4]triazolo[4,3-a]pyrazin-4-yl)-N-methylpyrrolidin-3-amine]

- IC50: > 100 µM
Structure (SMILES): CN[C@@H]1CCN(c2nc3cc(Cl)cnc3n3cnnc23)C1 [Compound 11, (R)-1-(3-chloropyrido[3,2-e][1,2,4]triazolo[4,3-a]pyrazin-6-yl)-N-methylpyrrolidin-3-amine]

- IC50: > 100 µM
Structure (SMILES): Cc1nnc2c(N3CCN(C)CC3)nc3ncc(Cl)cc3n12 [Compound 14, 8-Chloro-1-methyl-4-(4-methylpiperazin-1-yl)pyrido[2,3-e][1,2,4]triazolo[4,3-a]pyrazine]

- IC50: > 100 µM
Structure (SMILES): Cc1nnc2c(N3CCNCC3)nc3ncc(Cl)cc3n12 [Compound 15, 8-Chloro-1-methyl-4-(piperazin-1-yl)pyrido[2,3-e][1,2,4]triazolo[4,3-a]pyrazine]

- IC50: > 100 µM
Structure (SMILES): CC1CN(c2nc3ncc(Cl)cc3n3cnnc23)CC(C)N1C (stereo not drawn) [Compound 22, 8-Chloro-4-(3,4,5-trimethylpiperazin-1-yl)pyrido[2,3-e][1,2,4]triazolo[4,3-a]pyrazine]

- IC50: > 100 µM
Structure (SMILES): N[C@@H]1CCN(c2nc3ncc(Cl)cc3n3cnnc23)C1 [Compound 30, (R)-1-(8-chloropyrido[2,3-e][1,2,4]triazolo[4,3-a]pyrazin-4-yl)pyrrolidin-3-amine]

- IC50: > 100 µM
Structure (SMILES): CCc1cnc2nc(N3CC(NC)C3)c3nncn3c2c1 [Compound 56, 1-(8-Ethylpyrido[2,3-e][1,2,4]triazolo[4,3-a]pyrazin-4-yl)-N-methylazetidin-3-amine]

- IC50: > 100 µM
Structure (SMILES): CNC1CN(c2nc3ncc(O)cc3n3cnnc23)C1 [Compound 57, 4-(3-(Methylamino)azetidin-1-yl)pyrido[2,3-e][1,2,4]triazolo[4,3-a]pyrazin-8-ol]

- IC50: > 100 µM
Structure (SMILES): COc1nc2nc(N3CCNCC3)c3nncn3c2cc1Cl [Compound 61, 8-Chloro-7-methoxy-4-(piperazin-1-yl)pyrido[2,3-e][1,2,4]triazolo[4,3-a]pyrazine]

- IC50: > 100 µM
Structure (SMILES): CC1(N)CN(c2nc3ncc(Br)cc3n3cnnc23)C1 [Compound 72, 1-(8-Bromopyrido[2,3-e][1,2,4]triazolo[4,3-a]pyrazin-4-yl)-3-methylazetidin-3-amine]

- IC50: > 100 µM
Structure (SMILES): CNC1(C)CN(c2nc3ncc(Br)cc3n3cnnc23)C1 [Compound 73, 1-(8-Bromopyrido[2,3-e][1,2,4]triazolo[4,3-a]pyrazin-4-yl)-N,3-dimethylazetidin-3-amine]

- IC50: > 100 µM
Structure (SMILES): Clc1cnc2nc(N3CCN(C4CC4)CC3)c3nncn3c2c1 [Compound 76, 8-Chloro-4-(4-cyclopropylpiperazin-1-yl)pyrido[2,3-e][1,2,4]triazolo[4,3-a]pyrazine]

- IC50: > 100 µM
Structure (SMILES): Clc1cnc2nc(N3CCCNCC3)c3nncn3c2c1 [Compound 79, 8-Chloro-4-(1,4-diazepan-1-yl)pyrido[2,3-e][1,2,4]triazolo[4,3-a]pyrazine]

- IC50: > 100 µM
Structure (SMILES): CN[C@@H]1CCN(c2nc3ncc(Br)cc3n3cnnc23)C1 [Compound 81, (R)-1-(8-bromopyrido[2,3-e][1,2,4]triazolo[4,3-a]pyrazin-4-yl)-N-methylpyrrolidin-3-amine]

- IC50: > 100 µM
Structure (SMILES): CN(C)C1CN(c2nc3ncc(Cl)cc3n3cnnc23)C1 [Compound 84, 1-(8-Chloropyrido[2,3-e][1,2,4]triazolo[4,3-a]pyrazin-4-yl)-N,N-dimethylazetidin-3-amine]

- IC50: > 100 µM
Structure (SMILES): CN(C)C1CN(c2nc3ncc(Br)cc3n3cnnc23)C1 [Compound 85, 1-(8-Bromopyrido[2,3-e][1,2,4]triazolo[4,3-a]pyrazin-4-yl)-N,N-dimethylazetidin-3-amine]

- IC50: > 100 µM
Structure (SMILES): OCCNc1nc2ncc(Cl)cc2n2cnnc12 [Compound 87, 2-((8-Chloropyrido[2,3-e][1,2,4]triazolo[4,3-a]pyrazin-4-yl)amino)ethanol]

The remaining lines, values behind:

Structure (SMILES): CNC1CN(c2nc3ncc(Cl)cc3c3nc(C)nn23)C1 [Compound 33, 1-(9-Chloro-2-methylpyrido[3,2-e][1,2,4]triazolo[1,5-c]pyrimidin-5-yl)-N-methylazetidin-3-amine]
- IC50: > 100 µM

Structure (SMILES): CNC1CN(c2nc3ncc(Cl)cc3c3ncnn23)C1 [Compound 36, 1-(9-Chloropyrido[3,2-e][1,2,4]triazolo[1,5-c]pyrimidin-5-yl)-N-methylazetidin-3-amine]
- IC50: > 100 µM

Structure (SMILES): Clc1cnc2nc(N3CCNCC3)n3ncnc3c2c1 [Compound 37, 9-Chloro-5-(piperazin-1-yl)pyrido[3,2-e][1,2,4]triazolo[1,5-c]pyrimidine]
- IC50: > 100 µM

Structure (SMILES): COCc1nc2c3cc(Cl)cnc3nc(N3CCN(C)CC3)n2n1 [Compound 40, 9-Chloro-2-(methoxymethyl)-5-(4-methylpiperazin-1-yl)pyrido[3,2-e][1,2,4]triazolo[1,5-c]pyrimidine]
- IC50: > 100 µM

Structure (SMILES): CCc1nc2c3cc(Cl)cnc3nc(N3CCN(C)CC3)n2n1 [Compound 41, 9-Chloro-2-ethyl-5-(4-methylpiperazin-1-yl)pyrido[3,2-e][1,2,4]triazolo[1,5-c]pyrimidine]
- IC50: > 100 µM

Structure (SMILES): CNC1CN(c2nc3ncc(Cl)cc3c3cn(C)nc23)C1 [Compound 44, 1-(8-Chloro-2-methyl-2H-pyrazolo[3,4-c][1,8]naphthylidine-4-yl)-N-methylazetidin-3-amine]
- IC50: > 100 µM

Structure (SMILES): CN1CC2CN(c3nc4ncc(Cl)cc4n4cnnc34)CC2C1 (stereo not drawn) [Compound 70, 8-Chloro-4-(5-methylhexahydropyrrolo[3,4-c]pyrrole-2(1H)-yl)pyrido[2,3-e][1,2,4]triazolo[4,3-a]pyrazine]
- IC50: > 100 µM

Structure (SMILES): CN1CC2CN(c3nc4ncc(Br)cc4n4cnnc34)CC2C1 (stereo not drawn) [Compound 71, 8-Bromo-4-(5-methylhexahydropyrrolo[3,4-c]pyrrole-2(1H)-yl)pyrido[2,3-e][1,2,4]triazolo[4,3-a]pyrazine]
- IC50: > 100 µM

Structure (SMILES): Clc1cnc2nc(N3CC4CCCNC4C3)c3nncn3c2c1 (stereo not drawn) [Compound 82, 8-Chloro-4-(hexahydro-1H-pyrrolo[3,4-b]pyridin-6(2H)-yl)pyrido[2,3-e][1,2,4]triazolo[4,3-a]pyrazine]
- IC50: > 100 µM

Structure (SMILES): CN1CCCC2CN(c3nc4ncc(Cl)cc4n4cnnc34)CC21 (stereo not drawn) [Compound 83, 8-Chloro-4-(1-methylhexahydro-1H-pyrrolo[3,4-b]pyridin-6(2H)-yl)pyrido[2,3-e][1,2,4]triazolo[4,3-a]pyrazine]
- IC50: > 100 µM

Structure (SMILES): Cc1nc2c(N3CC(N(C)C(=O)OC(C)(C)C)C3)nc3ncc(Cl)cc3c2o1 [Compound 90, tert-Butyl (1-(8-chloro-2-methyloxazolo[4,5-c][1,8]naphthylidine-4-yl)azetidin-3-yl)(methyl)carbamate]
- IC50: > 100 µM

Structure (SMILES): CNC1CN(c2nc3ncc(Cl)cc3n3nc(C)nc23)C1 [Compound 97, 1-(8-Chloro-2-methylpyrido[2,3-e][1,2,4]triazolo[1,5-a]pyrazin-4-yl)-N-methylazetidin-3-amine]
- IC50: 87 µM

Structure (SMILES): CNC1CN(c2nc3nc(C)c(Br)cc3n3cnnc23)C1 [Compound 99, 1-(8-bromo-7-methylpyrido[2,3-e][1,2,4]triazolo[4,3-a]pyrazin-4-yl)-N-methylazetidin-3-amine]
- IC50: > 100 µM

Structure (SMILES): CNC1CN(c2nc3nc(O)c(Cl)cc3n3cnnc23)C1 [Compound 101, 8-chloro-4-(3-(methylamino)azetidin-1-yl)pyrido[2,3-e][1,2,4]triazolo[4,3-a]pyrazin-7-ol HCl salt]
- IC50: > 100 µM

Structure (SMILES): CNC1CN(C2=Nc3ncc(Br)cc3N3C[C@H](C)N=C23)C1 [Compound 105, (S)-1-(8-bromo-2-methyl-1,2-dihydroimidazo[1,2-a]pyrido[2,3-e]pyrazin-4-yl)-N-methylazetidin-3-amine]
- IC50: > 100 µM

Structure (SMILES): CNC1CN(C2=Nc3ncc(Br)cc3N3C[C@@H](C)N=C23)C1 [Compound 106, (R)-1-(8-bromo-2-methyl-1,2-dihydroimidazo[1,2-a]pyrido[2,3-e]pyrazin-4-yl)-N-methylazetidin-3-amine]
- IC50: > 100 µM
